Assay results as given in publication PMC5431371, “Crystal structure-based discovery of a novel synthesized PARP1 inhibitor (OL-1) with apoptosis-inducing mechanisms in triple-negative breast cancer” (Scientific Reports, 2016).
Where “and” joins values, the source holds several entries; their conditions need not be identical. Equal values may be shown once. Read-outs that look alike come from different tables or passages of the source. Blank lines part the entries; values can stand above or below the molecule they belong to.

Columns and labels:
[1] = target: T1, Recombinant Human PARP1 (Homo sapiens, UniProt P09874); test: PARP1 enzymatic inhibition assay (Universal Chemiluminescent PARP Assay Kit); assay type: biochemical; conditions: mean ± SD, at least three independent experiments
T1 construct: purchased Trevigen
T1 sequence (P09874 whole entry): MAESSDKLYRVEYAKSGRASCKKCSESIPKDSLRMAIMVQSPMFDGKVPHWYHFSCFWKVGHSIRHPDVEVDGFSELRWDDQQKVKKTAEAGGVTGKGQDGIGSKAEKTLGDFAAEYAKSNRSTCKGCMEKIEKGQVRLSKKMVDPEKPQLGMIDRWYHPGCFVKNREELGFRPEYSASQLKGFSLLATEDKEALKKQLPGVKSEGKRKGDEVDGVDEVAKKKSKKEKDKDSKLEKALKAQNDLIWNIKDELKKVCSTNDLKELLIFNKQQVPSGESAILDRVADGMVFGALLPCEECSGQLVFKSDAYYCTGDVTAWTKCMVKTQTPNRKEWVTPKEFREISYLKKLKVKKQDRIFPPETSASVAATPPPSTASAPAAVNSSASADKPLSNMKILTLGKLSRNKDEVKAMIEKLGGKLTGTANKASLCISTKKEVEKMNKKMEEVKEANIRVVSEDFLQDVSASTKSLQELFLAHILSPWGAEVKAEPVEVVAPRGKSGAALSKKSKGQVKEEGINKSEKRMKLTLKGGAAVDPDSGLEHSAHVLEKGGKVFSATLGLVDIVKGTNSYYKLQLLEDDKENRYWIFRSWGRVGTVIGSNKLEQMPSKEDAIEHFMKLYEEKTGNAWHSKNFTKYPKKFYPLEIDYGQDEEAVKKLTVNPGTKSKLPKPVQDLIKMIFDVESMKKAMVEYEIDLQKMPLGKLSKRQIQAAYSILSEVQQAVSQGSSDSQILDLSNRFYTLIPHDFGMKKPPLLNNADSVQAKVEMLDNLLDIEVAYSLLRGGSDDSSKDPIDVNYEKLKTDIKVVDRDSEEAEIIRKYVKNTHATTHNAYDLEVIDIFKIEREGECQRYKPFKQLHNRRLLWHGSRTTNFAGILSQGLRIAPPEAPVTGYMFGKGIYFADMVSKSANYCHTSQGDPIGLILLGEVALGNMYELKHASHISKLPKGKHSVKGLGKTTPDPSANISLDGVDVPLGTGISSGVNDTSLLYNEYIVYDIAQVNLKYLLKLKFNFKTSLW
Method: The PARP1 enzymatic inhibition assay was performed by using Universal Chemiluminescent PARP Assay Kit (Trevigen, Gaithersburg, MD, USA) according to the manufacturer’s instruction and previous report. Briefly, serial dilutions of inhibitor were added to appropriate wells followed by addition of diluted PARP1 enzyme (0.5 Unit/well). After incubation for 10 min at room temperature, distributing 25 μL of 1X PARP Cocktail into each well and incubating the strip wells at room temperature for 60 min. The strip wells were washed with 1X PBS and 0.1% Triton X-100 for twice. Then 50 µL/well of diluted Strep-HRP was added to each well and incubate at room temperature for 60 min. After another wash with PBS, mixing equal volumes of PeroxyGlow™ A and B together and adding 100 µl per well. Finally, immediately taking the chemiluminescent readings. The IC50 values of PARP1 inhibitors were determined using Prism 6 software (GraphPad, San Diego, CA, USA).

[2] = tested on: MDA-MB-436 cells; test: Cell viability assay (MTT); assay type: cell-based; conditions: Homo sapiens
Method: 5 × 10^3 cells were seeded into each well in 96-well microplates and cultured for 24 h. […] After drug treatment, the cell viabilities were detected by MTT assay.

[3] = tested on: Bax, Bcl-2, Caspase-3; test: Western blot analysis of apoptotic markers; assay type: cell-based; conditions: MDA-MB-436 cells
Method: (§1) Western blot analysis was carried out briefly as previous description. MDA-MB-436 cells were exposed to OL-1 for indicated time. Both floating cells and adherent were collected. The cell pellets were resuspended with RIPA lysis buffer and PMSF (1 mM) (Beyotime, Haimen, Jiangsu, China) and lysed at 4 °C for 1 h. After 12,000 rpm centrifugation for 10 min, the supernatant was collected to determine the protein content by the BCA Protein Assay Kit (CWBIO, Beijing, China). […] After pre-blocking in TBST with 5% non-fat milk or BSA for 1 h, the membranes were incubated with primary antibodies overnight at 4 °C, and subsequently incubated with HRP-conjugated secondary antibody at room temperature for 1–2 h. Positive signals were detected by using ECL as the HRP substrate after washing with TBST solution.

[4] = tested on: PARP1 and PAR; test: Western blot analysis of PARP1 and PAR in treated cells; assay type: cell-based; conditions: MDA-MB-436 cells
Method: as §1

[5] = tested on: MDA-MB-436 cells; test: Cell migration assay (scratch wound); assay type: cell-based; conditions: 24 h
Method: MDA-MB-436 cells were cultured in 24-well microplates and scratch-wounded by sterilized pipettes. Then the cells were washed with PBS and cultured with normal medium or OL-1. After 24 h incubation, pictures were taken by phase-contrast microscope.

[6] = tested on: MDA-MB-436 xenograft; test: MDA-MB-436 xenograft tumor model; assay type: in vivo, BALB/c nude mice
Method: All experiments protocols used in this study were carried out in accordance with guidelines of the animal ethics committee (Sichuan University). Thirty-two 6–8 weeks-old female BALB/c nude mice (18–20 g) were subcutaneously injected with MDA-MB-436 cells (1 × 10^7 cells/mouse). Until the tumor volumes reached 100 mm^3 (calculated as V = L × W^2/2), the mice were randomly divided into four groups. […] Body weight and the tumor size were determined every day until the end of the study. All mice were sacrificed at the end of drug treatment. The organs of mice such as spleen, liver and kidney were harvested and weighed. Tumor tissues were detached and fixed in 4% paraformaldehyde for immunohistochemistry or lysed for western blotting.
Immunohistochemical analysis was carried out by the method of our previous study. Samples were dehydrated using gradient ethanol, and subsequently paraffin embedded. The paraffin embedded samples were sliced into 5 μm thickness sections. […] Nuclei were counterstained with hematoxylin. The numbers of positive cells were counted in at least 6 fields for each section and statistical analyzed.

[7] = tested on: MDA-MB-436 cells; test: Apoptosis assay (Annexin V-FITC/PI double staining, flow cytometry); assay type: cell-based; conditions: MDA-MB-436, 0.25-1 μM, 24 h
Method: MDA-MB-436 cells (1 × 10^5 per well) were seeded into 6-well microplates in the presence or absence of OL-1 and cultured for 24 h, then incubated with 500 μL Hoechst 33258 staining solution (0.5 μg/mL) for 30 min at 37 °C. After staining, the apoptotic features were observed under fluorescence microscope. Apoptotic ratio was measured by Annexin-V-FLUOS Staining Kit (Roche, Germany) according to the manufacturer’s protocol followed by flow cytometry (FACS) analysis (Becton Dickinson, Franklin Lakes, NJ).

[8] = recombinant human PARP1, read-out: Enzymatic inhibition (IC50, μM) PARP1
[9] = MDA-MB-436 cells (BRAC1 mutant breast cancer), mean ± SD, at least three independent experiments, read-out: Anti-cell viability (IC50, μM) MDA-MB-436
[10] = high dose 25 mg/kg/d i.p., 14 days, vs Iniparib 100 mg/kg/d and low dose 12.5 mg/kg/d, P < 0.05

SMILES: CN(C)CCC=C1c2ccccc2CCc2ccccc21 [11d (PA-10), 3-(10,11-dihydro-5H-dibenzo[a,d][7]annulen-5-ylidene)-N,N-dimethylpropan-1-amine]
IC50 [1, 8]: 1.65 ± 0.25 µM | IC50 [2, 9]: 5.44 ± 1.01 µM

SMILES: CN(C)CC/C=C1/c2ccccc2COc2ccc(CC(=O)NN)cc21 [33e (OL-1)]
Bax expression [3]: upregulated | Bcl-2 expression [3]: downregulated | cleavage of caspase-3 [3]: increased | expression of PAR (western blot) [4]: decreased | activity of PARP (western blot) ([4]; no cleavage of PARP): significantly inhibited | IC50 ([1]; Enzymatic inhibition (IC50, μM) PARP1, recombinant human PARP1): 0.079 ± 0.013 µM | cell migration [5]: could inhibit cell migration | IC50 ([2]; BRCA1 mutant MDA-MB-436 cells, MTT, Fig. 11A, read-out: anti-proliferative effects IC50): 5.14 µM | IC50 [2, 9]: 0.736 ± 0.223 µM | loss of body weight ([6]; 25 mg/kg/d i.p., during the 14 days of treatment, P < 0.01): 10.05% | liver, spleen and kidney weights ([6]; OL-1 treated groups (12.5 and 25 mg/kg/d i.p.)): not changed | tumor volumes [6, 10]: lower than the positive control | tumor weights [6, 10]: lower than the positive control | positive ratio of Ki-67 in tumor tissues ([6]; immunohistochemistry, compared to the control group): significantly reduced | decrease of body weights ([6]; low dose 12.5 mg/kg/d i.p., 14 days): not obvious | apoptotic cell ratio [7]: obviously increased in a concentration-dependent manner

SMILES: CNCC=C1c2ccccc2CCc2ccccc21 [Compound 11a]
IC50 [1, 8]: > 20 µM

SMILES: CN(C)CC=C1c2ccccc2CCc2ccccc21 [Compound 11b]
IC50 [1, 8]: 16.2 ± 1.24 µM | IC50 [2, 9]: > 20 µM

SMILES: CNCCC=C1c2ccccc2CCc2ccccc21 [Compound 11c]
IC50 [1, 8]: 4.21 µM and 14.2 µM | IC50 [2, 9]: > 20 µM

SMILES: CNCCCC=C1c2ccccc2CCc2ccccc21 [Compound 11e]
IC50 [1, 8]: > 20 µM

SMILES: CN(C)CCCC=C1c2ccccc2CCc2ccccc21 [Compound 11f]
IC50 [1, 8]: > 20 µM

SMILES: C(=C1c2ccccc2CCc2ccccc21)c1ccccc1 [Compound 15a]
IC50 [1, 8]: > 20 µM

SMILES: Fc1ccc(C=C2c3ccccc3CCc3ccccc32)cc1 [Compound 15b]
IC50 [1, 8]: > 20 µM

SMILES: Clc1ccc(C=C2c3ccccc3CCc3ccccc32)cc1 [Compound 15c]
IC50 [1, 8]: > 20 µM

SMILES: Brc1ccc(C=C2c3ccccc3CCc3ccccc32)cc1 [Compound 15d]
IC50 [1, 8]: > 20 µM

SMILES: Cc1ccc(C=C2c3ccccc3CCc3ccccc32)cc1 [Compound 15e]
IC50 [1, 8]: > 20 µM

SMILES: CN(C)CC=C1c2ccccc2COc2ccccc21 [Compound 19a]
IC50 [1, 8]: 13.2 ± 2.33 µM | IC50 [2, 9]: > 20 µM

SMILES: CN(C)CCC=C1c2ccccc2COc2ccccc21 [Compound 19b]
IC50 [1, 8]: 0.75 ± 0.27 µM

SMILES: CN(C)CCCC=C1c2ccccc2COc2ccccc21 [Compound 19c]
IC50 [1, 8]: > 20 µM

SMILES: CN(C)CC=C1c2ccccc2CSc2ccccc21 [Compound 23a]
IC50 [1, 8]: 19.2 ± 3.05 µM | IC50 [2, 9]: > 20 µM

SMILES: CN(C)CCC=C1c2ccccc2CSc2ccccc21 [Compound 23b]
IC50 [1, 8]: 1.04 ± 0.17 µM | IC50 [2, 9]: 17.9 ± 2.11 µM

SMILES: CN(C)CCCC=C1c2ccccc2CSc2ccccc21 [Compound 23c]
IC50 [1, 8]: > 20 µM

SMILES: CN(C)CC=C1c2ccccc2Cc2ccccc21 [Compound 26a]
IC50 [1, 8]: > 20 µM

SMILES: CN(C)CCC=C1c2ccccc2Cc2ccccc21 [Compound 26b]
IC50 [1, 8]: 17.9 ± 2.46 µM | IC50 [2, 9]: > 20 µM

SMILES: O=C(c1cc(Cc2n[nH]c(=O)c3ccccc23)ccc1F)N1CCN(C(=O)C2CC2)CC1 [Olaparib, reference compound]
IC50 ([2]; MDA-MB-436, read-out: Anti-cell viability (IC50, μM) MDA-MB-436): 1.12 ± 0.77 µM

The remaining lines, values ahead:

IC50 [1, 8]: > 20 µM
SMILES: CN(C)CCCC=C1c2ccccc2Cc2ccccc21 [Compound 26c]

IC50 [1, 8]: > 20 µM
SMILES: CN(C)CC=C1c2ccccc2Oc2ccccc21 [Compound 28a]

IC50 [1, 8]: > 20 µM
SMILES: CN(C)CCC=C1c2ccccc2Oc2ccccc21 [Compound 28b]

IC50 [1, 8]: > 20 µM
SMILES: CN(C)CCCC=C1c2ccccc2Oc2ccccc21 [Compound 28c]

IC50 [1, 8]: 11.2 ± 1.16 µM | IC50 [2, 9]: > 20 µM
SMILES: CN(C)CC/C=C1/c2ccccc2COc2ccc(CC(=O)O)cc21 [Compound 31]

IC50 [1, 8]: 9.11 µM and 19.1 µM | IC50 [2, 9]: > 20 µM
SMILES: COC(=O)Cc1ccc2c(c1)C(=CCCN(C)C)c1ccccc1CO2 [Compound 33a]

IC50 [1, 8]: > 20 µM
SMILES: CCOC(=O)Cc1ccc2c(c1)C(=CCCN(C)C)c1ccccc1CO2 [Compound 33b]

IC50 [1, 8]: 7.35 ± 1.32 µM | IC50 [2, 9]: 8.23 ± 1.56 µM
SMILES: CC(C)NC(=O)Cc1ccc2c(c1)C(=CCCN(C)C)c1ccccc1CO2 [Compound 33j]

IC50 [1, 8]: 19.1 ± 2.16 µM | IC50 [2, 9]: > 20 µM
SMILES: CN(C)CCC=C1c2ccccc2COc2ccc(CC(=O)NCCO)cc21 [Compound 33k]

IC50 [1, 8]: > 20 µM
SMILES: CN(C)CCC=C1c2ccccc2COc2ccc(CC(=O)NC3CC3)cc21 [Compound 33n]

IC50 [1, 8]: > 20 µM
SMILES: COCCCNC(=O)Cc1ccc2c(c1)C(=CCCN(C)C)c1ccccc1CO2 [Compound 33o]

IC50 [2, 9]: 14.3 ± 1.56 µM | liver weights ([6]; 100 mg/kg/d, 14 days, P < 0.01): significantly decreased | spleen weights ([6]; 100 mg/kg/d, 14 days, P < 0.05): affected
SMILES: NC(=O)c1ccc(I)c([N+](=O)[O-])c1 [Iniparib, reference compound]
